Consider three molecules from patent US10155001B2, “RAC1 inhibitors for inducing bronchodilation” (INSERM (Institut National de la Sante et de la Recherche …, priority 2013, dated 2018).

Assay [1] relates to AHR to methacholine in OVA-sensitized mice. Put plainly: Airway hyper-responsiveness to methacholine in OVA model of allergic asthma, plethysmography. To be noted: for metacholine-induced airway response: summary statement: compared with SM-Rac1-KO mice in the OVA-sensitized model of allergic asthma; for AHR to methacholine: OVA-sensitized mice, nebulized before methacholine challenge, FIG. 6, E (o/o).
Method: Analysis of airways responsiveness in vivo: Airway responsiveness was assessed in conscious, unrestrained mice using a barometric, whole-body plethysmography (EMKA Technologies) by recording respiratory pressure curves in response to inhaled methacholine (Sigma) at concentrations of 0-40 mg/ml for 1 min. Airway responsiveness was expressed in enhanced pause (Penh) units. The Penh values measured after stimulation were averaged and expressed as the fold-increase over baseline values. Alternatively, dynamic airway resistance was measured using a Flexivent® apparatus (SCIREQ). In this case, mice were anesthetized by a ketamine/xylazine solution, tracheotomized, paralyzed and immediately intubated, followed by mechanical ventilation. Respiratory frequency was set at 150 breaths/min. Increasing concentrations of methacholine (0-15 mg/mL) were administered via a nebulizer aerosol system (Aeroneb, Aerogen).
Allergic asthma induction: When indicated, asthma was induced in mice by intraperitoneal injections with ovalbumin (OVA) in alum (Sigma) at D0, D14 and D21. Mice were challenged at D27, D28 and D29 through intranasal route with aerosolized OVA (50 μg in phosphate-buffered saline). These OVA-sensitized mice were used as a model of in vivo chronic asthma. Control mice were sensitized with PBS/alum and then were challenged with PBS.

Assay [2] relates to bronchial rings from control and house dust mite (HDM)-sensitized mice. Put plainly: Contractile responses ex vivo of bronchial rings from control and house dust mite-sensitized mice. To be noted: bronchial rings from control and HDM-sensitized mice pre-treated with inhibitor; FIG. 7. The procedure:
(§1) Analysis of airways reactivity ex vivo: Primary bronchi were cut in 2 mm-long rings and mounted on a multichannel isometric myograph (Danish Myo Technology) containing a Krebs-Henseleit solution (118.4 mM NaCl, 4.7 mM KCl, 2 mM CaCl2, 1.2 mM MgSO4, 1.2 mM KH2PO4, 25 mM NaHCO3 and 11 mM glucose). A pre-trension of 0.5 mN was applied and maintained all along the protocol. We constructed cumulative concentration-response curves in response to KCl and methacholine (Sigma). When indicated, we pretreated rings with EHT1864 (Sigma) or NSC23766 (Calbiochem) Rac1 inhibitors at 10 μM, 1 h before contraction. Chambers wire myograph were connected to a digital data recorder (MacLab/4e, AD Instruments) and recordings were analyzed using LabChart v7 software (AD Instruments).
Allergic asthma induction: House dust mite model (HDM) of chronic asthma was used. In this case, mice were sensitized on days D0, D7, D14 and D21 by skin application of 500 μg of total extract of HDM Der f (Stallergenes) in 20 μL of dimethylsulfoxyde (DMSO, Sigma-Aldrich) on the ears. DMSO was used as an irritant able to facilitate the allergen penetration. Intranasal challenges were performed with Der f (250 μg in phosphate-buffered saline 250) on D27 and D34. Mice were sacrificed on D35 for ex vivo analysis.

For assay [3], the system named is bronchial rings. The experiment in a line: Analysis of airways reactivity ex vivo: bronchial rings on isometric myograph. To be noted: bronchial rings from SM-Rac1-KO mice; FIG. 2, A and B. The procedure: as §1
For assay [4], the system named is methacholine-dependent bronchoconstriction. Put plainly: Airways responsiveness in vivo to inhaled methacholine, whole-body plethysmography, control (naive) mice. To be noted: nebulized 10 min before methacholine challenge, FIG. 3, B and FIG. 6, E (ap/ap).

“Also recorded” adds a separate entry of the source.

On to `O=c1cc(CN2CCOCC2)occ1OCCCCCSc1ccnc2cc(C(F)(F)F)ccc12` [EHT1864], for which, in assay [1], the metacholine-induced airway response entry is “Same results have been obtained”. For the same molecule, the “methacholine and KCl contractions (bronchial reactivity)” value in assay [2] was “methacholine and KCl contractions are inhibited in both group of bronchial rings; also recorded: bronchial reactivities of control and HDM sensitized-mice are similar”.
Regarding `CCN(CC)CCCC(C)Nc1nc(C)cc(Nc2ccc3nc(C)cc(N)c3c2)n1` (centres unmarked) [NSC23766], in assay [1], the AHR to methacholine entry was “almost completely prevented the AHR to methacholine; also recorded: comparable to that of salbutamol treatment” and the metacholine-induced airway response result is recorded as “Same results have been obtained”. In addition, in assay [3], the “KCl- and methacholine-induced contraction” value is on record as “absence of any effect”. Moreover, the “methacholine-dependent bronchoconstriction (airway reactivity, Penh)” value in assay [4] was “prevented methacholine-dependent bronchoconstriction (FIG. 3, B) in a dose-dependent manner; also recorded: comparable to that of salbutamol treatment”.
Consider `CC(C)(C)NCC(O)c1ccc(O)c(CO)c1` (centres unmarked) [salbutamol], for which the AHR to methacholine entry in assay [1] was “effect of NSC23766 aerosol inhalation was comparable to that of salbutamol treatment”. In assay [4], the “methacholine-dependent bronchoconstriction (airway reactivity, Penh)” value was “efficiency of NSC23766 aerosol inhalation is similar to that of salbutamol; also recorded: effect of NSC23766 aerosol inhalation was comparable to that of salbutamol treatment”.
